In patent US7713994B2 (Wyeth LLC, priority 2005, dated 2010) one finds IC50 and melting point data, which are given here for six compounds.

Where two headings read alike, the source gives them in different places. A value given as a limit tells only on which side of the number the result lay.

Data set [1] concerns the target T1, Cyclin D1/CDK6 (Homo sapiens, UniProt Q00534).
T1 construct: made in house; host or cells: Sf9 insect cells, recombinant baculovirus
Description: Cyclin D1/CDK6 Elisa. The format is biochemical. The following applies: 200 μM ATP. The procedure: Cyclin D1/CDK6 was expressed in insect cells (Sf9) infected with recombinant baculovirus and partially purified using ammonium sulfate fractionation. Test compounds were diluted in 20% DMSO/20 mM HEPES, pH 7.5 and serial dilutions were prepared (5 concentrations; 0.005-50 µM). High-binding ELISA microtiter plates (Costar) were coated with the kinase substrate (glutathione-S-transferase (GST) fusion of C-terminal fragment of the retinoblastoma susceptibility gene product (Rb). Non-specific binding sites were blocked with Superblock in Tris-buffered saline (TBS; Pierce). Kinase reactions contained the test inhibitor, 200 μM ATP, 0.5 mg/ml bovine serum albumin (BSA; Sigma), and 0.1 μl cyclin D1/cdk 6. Reaction volumes were adjusted to 30 μl with kinase assay buffer (50 mM HEPES, pH 7.5, 10 mM MgCl2, 5% glycerol, 10 mM 2-mercaptoethanol), and plates were incubated at 30° C. for 1 hour. Reactions were terminated by aspiration, and non-specific sites were blocked with blocking buffer (TBS containing 0.1% Tween-20 and 5% nonfat dry milk). Phoshporylation of the substrate was detected using phospho-Rb specific antibodies (ser-795) (Cell Signalling Technologies) and anti-rabbit IgG/horseradish peroxidase conjugates (Amersham Life Science) using TMB as substrate. Colourimetric reactions were stopped with 2N sulphuric acid and the absorbance was measured at 450 nm (Molecular Devices). IC50 values were determined from inhibition plots.

Data set [2] relates to LoVo. Kind of data set: Cytotoxicity assay (SRB), LoVo. The data set is classed as cell-based. The note with it: Homo sapiens, LoVo, 72 h, LoVo cells, SRB, read-out: In Vitro Cellular Activity IC50 LOVO. The method, boiled down: (§1)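 Cells were seeded overnight in RPMI 1640 with 5% FBS at 37 °C, 7% CO2 (12000/well BT474, 4000 HCT-116, 6000 LoVo, 6000 MCF-7), then exposed to compound dilutions for 3 days (6 days for BT474). Survival versus untreated controls was measured by TCA fixation and SRB staining at 540 nm.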

For data set [3], the system named is HCT-116. Description: Cytotoxicity assay (SRB), HCT-116. The format is cell-based. The note with it: Homo sapiens, HCT-116, 72 h, HCT116 cells, SRB, read-out: In Vitro Cellular Activity IC50 HCT116. The method, boiled down: as §1
The target in data set [4] is T2, cyclin B/CDK1 enzyme (Homo sapiens, UniProt P06493).
T2 construct: purchased New England BioLabs; host or cells: Sf9 insect cells, recombinant baculovirus
Kind of data set: CDK1 ELISA kinase assay (phospho-Rb ser 795 detection). The data set is classed as biochemical. The method, boiled down:
(§2)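 Partially purified Sf9-expressed cyclin D1/CDK4, cyclin E/CDK2 or cyclin B/CDK1 phosphorylated plate-bound GST-Rb C-terminal fragment with 200 μM ATP at 30° C for 1 h.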
Background: In an ELISA, binding on a coated surface is turned into a signal by an enzyme label.

In data set [5] the target is T3, cyclin D1/cdk 4 enzyme (Homo sapiens, UniProt P11802).
T3 construct: made in house; host or cells: Sf9 insect cells, recombinant baculovirus
Description: CDK4 ELISA kinase assay (phospho-Rb ser 795 detection). The format is biochemical. The method, boiled down: as §2

Data set [6] has as its system MCF-7. Description: Cytotoxicity assay (SRB), MCF-7. The data set is classed as cell-based. The following applies: Homo sapiens, MCF7, 72 h, MCF-7 cells, SRB, read-out: In Vitro Cellular Activity IC50 MCF-7. The method, boiled down: as §1
Data set [7] relates to BT474. Kind of data set: Cytotoxicity assay (SRB), BT474. The data set is classed as cell-based. The method, boiled down:
as §1

In data set [8] the target is T4, cyclin E/CDK2 enzyme (Homo sapiens, UniProt P24941).
T4 construct: made in house; host or cells: Sf9 insect cells, recombinant baculovirus
Description: CDK2 ELISA kinase assay (phospho-Rb ser 795 detection). The data set is classed as biochemical. The method, boiled down:
as §2

Data set [9] deals with SK-Br-3. Description: Cytotoxicity assay (SRB), SK-Br-3. The data set is classed as cell-based. The note with it: Homo sapiens; SK-Br-3 cells; read-out: In Vitro Cellular Activity IC50 SK-Br-3.
The subject of data set [10] is SK-UT-1B. Kind of data set: Cytotoxicity assay (SRB), SK-UT-1B. The following applies: Homo sapiens, Skut1B; SK-UT-1B cells; read-out: In Vitro Cellular Activity IC50 SK-UT-1B. The format is cell-based.
Setting [11] is: In Vitro Enzyme Assays, read-out: CDK1 IC50.
The mark [12] stands for this setting: In Vitro Enzyme Assays, 200 μM ATP, read-out: CDK4 IC50.
[13] abbreviates: Homo sapiens, BT-474, 144 h, BT474 cells, SRB, 6 days; read-out: In Vitro Cellular Activity IC50 BT474.
The mark [14] stands for this setting: In Vitro Enzyme Assays, read-out: CDK2 IC50.
Where [15] appears, read: In Vitro Enzyme Assay, cyclin B/CDK1, read-out: CDK1 IC50.
[16] abbreviates: In Vitro Enzyme Assay, cyclin D1/cdk 4, read-out: CDK4 IC50.
The mark [17] stands for this setting: Homo sapiens, BT-474, 144 h, BT474 cells, 6 days, SRB; read-out: In Vitro Cellular Activity IC50 BT474.
Setting [18] is: In Vitro Enzyme Assay, cyclin E/CDK2, read-out: CDK2 IC50.

T2 sequence (P06493 whole entry): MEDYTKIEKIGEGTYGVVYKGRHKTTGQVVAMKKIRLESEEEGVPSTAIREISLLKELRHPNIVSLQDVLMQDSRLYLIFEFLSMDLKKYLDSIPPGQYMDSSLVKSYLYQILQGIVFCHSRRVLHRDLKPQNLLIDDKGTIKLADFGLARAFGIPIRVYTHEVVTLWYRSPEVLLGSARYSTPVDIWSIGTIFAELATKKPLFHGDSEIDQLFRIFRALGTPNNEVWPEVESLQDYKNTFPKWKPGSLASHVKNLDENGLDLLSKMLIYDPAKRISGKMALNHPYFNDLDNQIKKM
T2 sequence (P14635 whole entry partner): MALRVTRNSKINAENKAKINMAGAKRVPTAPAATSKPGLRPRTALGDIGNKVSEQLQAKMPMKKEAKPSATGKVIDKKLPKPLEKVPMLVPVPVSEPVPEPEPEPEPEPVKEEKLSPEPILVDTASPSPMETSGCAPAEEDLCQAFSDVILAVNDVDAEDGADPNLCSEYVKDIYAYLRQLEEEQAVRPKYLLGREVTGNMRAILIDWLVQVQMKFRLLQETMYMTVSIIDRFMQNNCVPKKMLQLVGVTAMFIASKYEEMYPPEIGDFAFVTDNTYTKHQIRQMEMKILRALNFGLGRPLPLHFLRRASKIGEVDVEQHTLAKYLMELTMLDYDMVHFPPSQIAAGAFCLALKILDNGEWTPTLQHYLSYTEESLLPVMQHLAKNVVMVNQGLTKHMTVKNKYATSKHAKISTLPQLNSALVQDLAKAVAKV
T3 sequence (P11802 whole entry, species assumed): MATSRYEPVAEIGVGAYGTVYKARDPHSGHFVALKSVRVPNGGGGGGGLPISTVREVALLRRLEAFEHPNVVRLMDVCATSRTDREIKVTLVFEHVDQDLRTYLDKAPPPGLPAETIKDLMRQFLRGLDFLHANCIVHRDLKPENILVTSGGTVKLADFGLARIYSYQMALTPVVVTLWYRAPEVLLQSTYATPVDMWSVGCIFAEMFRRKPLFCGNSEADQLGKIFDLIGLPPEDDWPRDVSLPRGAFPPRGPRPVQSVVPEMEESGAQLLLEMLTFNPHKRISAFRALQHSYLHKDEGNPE
T3 sequence (P24385 whole entry partner, species assumed): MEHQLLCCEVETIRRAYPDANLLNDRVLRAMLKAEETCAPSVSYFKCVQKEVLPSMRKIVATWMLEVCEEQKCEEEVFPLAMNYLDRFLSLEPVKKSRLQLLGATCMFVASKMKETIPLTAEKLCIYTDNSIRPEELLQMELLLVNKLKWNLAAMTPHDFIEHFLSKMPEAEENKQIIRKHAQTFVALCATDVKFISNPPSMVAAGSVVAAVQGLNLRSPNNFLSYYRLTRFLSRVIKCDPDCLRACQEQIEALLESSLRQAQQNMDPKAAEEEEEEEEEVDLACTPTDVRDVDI
T1 sequence (Q00534 whole entry, species assumed): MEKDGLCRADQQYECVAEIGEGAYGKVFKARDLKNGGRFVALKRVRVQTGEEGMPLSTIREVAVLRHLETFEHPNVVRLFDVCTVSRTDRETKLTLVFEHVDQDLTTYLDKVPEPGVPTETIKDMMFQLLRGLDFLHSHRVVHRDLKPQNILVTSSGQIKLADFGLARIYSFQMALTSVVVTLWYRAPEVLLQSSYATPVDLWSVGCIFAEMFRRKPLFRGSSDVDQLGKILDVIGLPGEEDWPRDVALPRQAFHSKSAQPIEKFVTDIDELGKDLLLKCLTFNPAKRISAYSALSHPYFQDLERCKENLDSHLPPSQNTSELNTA
T1 sequence (P24385 whole entry partner, species assumed): as the sequence (P24385 whole entry partner, species assumed) above

For orientation: IC50 means the midpoint of a concentration-inhibition curve. By melting point is commonly meant the temperature, or range, at which the solid turns liquid. Compound `O=C1NC(=O)c2ccc(I)cc2/C1=C/Nc1ccc(CN2CCCCC2)cc1` [Example 82, (4Z)-6-Iodo-4-({[4-(piperidin-1-ylmethyl)phenyl]amino}methylene)isoquinoline-1,3(2H,4H)-dione] gave a melting point of 202 to 203 °C. In [1], this compound displayed an IC50 of 0.03 µM. The IC50 in [2] (three days) is 3.1 µM. The half-maximal inhibitory concentration (IC50) in data set [3] (three days) amounted to 2.7 µM. Also, the IC50 in data set [4] (setting [11]) is more than 50 µM. The concentration for half-maximal inhibition (IC50) in data set [5] (setting [12]) amounted to 300 nM. For the same compound, the IC50 in data set [6] (three days) stood at 1 µM. Besides, the IC50 in data set [7] (setting [13]) is 0.6 µM. The IC50 in data set [8] (setting [14]) was 20.4 µM.
Compound `COc1ccc(CN/C=C2\C(=O)NC(=O)c3cccc(Br)c32)cc1O` [Example 84, (4Z)-5-Bromo-4-{[(3-hydroxy-4-methoxybenzyl)amino]methylene}isoquinoline-1,3(2H,4H)-dione] came in with a melting point of 204 to 206 °C. In addition, the IC50 in [1] was 0.07 µM. For the same compound, in [2] (three days), the IC50 was 4.6 µM. Further, in [3] (three days), the IC50 amounted to 3.1 µM. Moreover, in data set [4] (setting [11]), the IC50 worked out at 8.1 µM. For the same compound, the IC50 in data set [5] (setting [12]) is 940 nM. In [6] (three days), the half-inhibitory concentration (IC50) was found to be 6.7 µM. In addition, the IC50 in data set [7] (setting [13]) turned out to be 2.1 µM. Also, the IC50 in [8] (setting [14]) came to 3.1 µM.
The compound `COc1cc(CN/C=C2\C(=O)NC(=O)c3ccc(-c4ccccc4)cc32)cc(O)c1OC` [Example 86] yielded a melting point of 250 to 251 °C. Further, 0.001 µM corresponded to half-maximal inhibition in data set [1] (IC50). In data set [2] (three days), the concentration for half-maximal inhibition (IC50) turned out to be 3.7 µM. The IC50 in data set [3] (three days) was determined as 4.5 µM. In addition, the IC50 in data set [4] (setting [11]) was more than 50 µM. Besides, the IC50 in [5] (setting [12]) worked out at 2 nM. Also, the IC50 in data set [6] (three days) was 5.1 µM. The IC50 in data set [7] (setting [13]) amounted to 3.2 µM. The IC50 in data set [8] (setting [14]) was more than 50 µM.
As for `Nc1ccc(NC=C2C(=O)NC(=O)c3ccccc32)cc1` [Example 545, 4-[(4-Amino-phenylamino)-methylene]-4H-isoquinoline-1,3-dione], the IC50 was more than 50 µM in data set [9]; more than 50 µM in data set [2] (3 days); 40.1 µM in data set [3] (3 days); more than 50 µM in [4] (setting [15]); 17900 nM in data set [5] (setting [16]); more than 50 µM in data set [6] (3 days). In addition, the IC50 in [7] (setting [17]) was more than 50 µM; in data set [8] (setting [18]), 2.5 µM; in data set [10], 38.9 µM.
Consider `O=C1NC(=O)c2ccccc2/C1=C/NCc1ccc(O)c(O)c1` [Example 550, 4-[(3,4-Dihydroxy-benzylamino)-methylene]-4H-isoquinoline-1,3-dione], for which the IC50 is 32.4 µM in [9]; 46.5 µM in data set [2] (3 days); 26.6 µM in [3] (3 days); 39.1 µM in data set [6] (3 days); 36.5 µM in data set [7] (setting [17]); 12.5 µM in data set [8] (setting [18]). In addition, the IC50 in [10] was 17.3 µM.
`O=C1NC(=O)c2ccccc2C1=CNc1ccc(O)c2ncccc12` [Example 569, 4-[(8-Hydroxy-quinolin-5-ylamino)-methylene]-4H-isoquinoline-1,3-dione]: the IC50 in [9] was 8.9 µM; in [2] (3 days), more than 50 µM; in [3] (3 days) it was 7.1 µM; in data set [4] (setting [15]) it was 34.8 µM; in [5] (setting [16]), 11200 nM; in data set [6] (3 days), 7.2 µM. Also, the IC50 turned out to be 14.1 µM in data set [7] (setting [17]), 6.2 µM in data set [8] (setting [18]) and 2.2 µM in data set [10].
